Experimental data taken from patent US11596716B2, “Compounds and matrices for use in bone growth and repair” (Human BioMolecular Research Institute, priority 2013, dated 2023).

Experiments:
[1] = system: cells released from demineralized allogeneic bone chips; experiment: Allograft-derived cells cultured with compound and TCP matrix; assay type: cell-based; conditions: 500 nM, TCP matrix 5 mg/mL, 8 days
Procedure: Demineralized allogeneic bone chips were thawed at 37° C. quickly with gentle agitation, washed with Dulbecco's PBS (DPBS) and centrifuged at 600×g for 5 min at room temperature. The material was digested with a collagenase and the mixture was filtered through a 100 µm cell strainer and the remaining bone fragments were rinsed with DPBS. The released cells were centrifuged at 1,200× rpm for 5 min at room temperature, resuspended and plated in 10 mL α-MEM media plus 20% FBS plus 1×Glutmax. After three days at 37° C. and 5% CO2, the TCP matrix (5 mg/mL) was added followed by compound 1 (500 nM) (or other compounds of Formula II, IV or VI) and the cell culture media was replaced every two days with fresh media-containing compound for 8 days. Cells were harvested after 8 days for determination of ALP activity, osteogenic mRNA biomarkers (i.e., VDR and collagen I, and cell proliferation. Cell proliferation increased 2.5-fold. VDR and collagen/mRNA expression increased 4.5-fold and 2.2-fold, respectively. Similar to isolated hMSCs in the presence of matrix, allograft-derived cells also respond to the presence of compounds and matrix to afford osteogenesis. The cells can be used in implantation as described in Examples 19 and 20.

[2] = Prodrug hydrolysis in phosphate buffer determined by HPLC; assay type: physicochemical
Procedure: 3 provided 54 (described in Example 3) through prodrug hydrolysis as determined by HPLC.
Within 5 minutes, the hydrolysis of 3 produced compound 84 (described in Example 3) that is the mono hydrolysis product of the bis(amino acid) pro-drug 3. Within 15 minutes, compound 54 that is the fully hydrolyzed product from 3 (and 84) was prominent in solution. By 77 minutes, most of 3 was hydrolyzed while compound 84 and compound 54 persisted.

[3] = system: nude, immunodeficient Bg-Nu-XID female mice; experiment: Intramuscular osteoinduction: implants in biceps femoris of immunodeficient mice, histology after 8 weeks; assay type: in vivo
Procedure: Mice were divided into groups according to the experimental design: i) uninduced hMSCs that were treated with vehicle alone (i.e., 0.1% DMSO, final concentration) for 8 days then combined with TCP ceramic matrix, and ii) induced hMSCs that were treated with 3 (500 nM) in the presence of TCP ceramic matrix (5 mg/mL) for 8 days, and iii) TCP ceramic matrix (i.e. no cells) mock cultured for 8 days. The TCP ceramic matrix used was […] granules. […] MEM medium was added to existing PBS (pH 6.5) cell incubations to effect a 500 nM final concentration.
Isolation of Compound-Induced hMSCs and their Cryopreservation (FIG. 5, Steps 4-5). At the end of an 8-day cell culture period, the cells were washed three times with 1 ml PBS (50 mM, pH 7.4), and removed from the 6-well plate by trypsinization. For induced cells, the TCP granules that remained on the plate were retained. After three washes with PBS (50 mM, pH 7.4), cells were centrifuged at 1200× g for 3 min. The cell pellet was recombined with TCP ceramic taken from cell culture and the mixture was suspended in 1 mL freezing medium (MEM essential containing 20% FBS and 5% DMSO). Before cryopreservation of the cell-TCP mixture in liquid nitrogen, a 10 μl aliquot of each sample was taken and used to count the cells, or to confirm ALP functional activity and mRNA biomarker expression (i.e., Osteocalcin, Collagen I) in advance of implantation.
Preparation of Implants for Surgery (FIG. 5, Steps i and ii). On the day of surgery, implants comprised of either i) TCP ceramic matrix, ii) hMSCs (0.5 million) and 5 mg TCP ceramic matrix, or iii) compound-induced hMSCs (0.5 million) and 5 mg TCP ceramic matrix were prepared for transplantation. Frozen cell/ceramic suspensions were thawed and washed three times with PBS (50 mM, pH 7.4). All implants were combined with a bioadhesive just prior to implantation in mice. […]
Surgical Implantation of Compositions of the Invention (FIG. 5, Step iii). […] Mice were monitored throughout surgery and thereafter for maintenance of the surgical plane of anesthesia. […]

Solubility in water = assay type: physicochemical
[4] = implants of hMSCs induced 8 days with compound (500 nM) and TCP ceramic matrix, intramuscular, mice, 8 weeks

| SMILES | Cell proliferation increase [1] [fold] | VDR mRNA expression increase [1] [fold] | collagen/mRNA expression increase [1] [fold] | persistence of compound ([2]; pH 6.5 PBS) [min] | time until compound 54 (fully hydrolyzed product) was prominent in solution ([2]; pH 6.5 PBS) [min] | time until hydrolysis produced compound 84 (mono hydrolysis product) ([2]; pH 6.5 PBS) [min] | persistence for over an hour in pH 7.5 buffer ([2]; pH 7.5 buffer, versus pH 6.5 phosphate buffer (10 mM)) | osteoid score (0-4), median and 75th percentile, versus non-induced hMSCs on TCP matrix or TCP matrix alone ([3]; blinded observers, H&E sections, 8 weeks post-implantation) | osteoid in the ROI relative to implants comprised of TCP alone (densitometry) [3, 4] [fold] | osteoid in the ROI relative to implants of non-induced hMSCs and TCP ceramic matrix (densitometry) [3, 4] [fold] | solubility in water (Solubility in water) |
| --- | --- | --- | --- | --- | --- | --- | --- | --- | --- | --- | --- |
| CC(=O)N1c2ccc(C)cc2[C@H](Nc2ccc(C)cc2)C[C@@H]1C (relative stereo) [Compound 1, cis-1-acetyl-2,6-dimethyl-N-(p-methylphenyl)-1,2,3,4-tetrahydroquinolin-4-amine] | 2.5 | 4.5 | 2.2 | – | – | – | – | – | – | – | – |
| CC(C)[C@H](N)C(=O)Oc1ccc(C=CC(=O)C=C(O)C=Cc2ccc(OC(=O)[C@@H](N)C(C)C)cc2)cc1 [Compound 3, (2S,2′S)—O,O′-(3-hydroxy-5-oxohepta-1,3,6-triene-1,7-diyl)bis(4,1-phenylene) bis(2-amino-3-methylbutanoate)] | – | – | – | ≥ 77 | ≤ 15 | ≤ 5 | not in pH 7.5 buffer | significantly (p<0.005) higher | 2.1 | 1.3 | greater than 10 mg/mL |
